{
  "source": "patent US11719711B2",
  "about": "“Compositions and methods for detecting and/or treating inflammation” (THE GENERAL HOSPITAL CORPORATION, priority 2013, dated 2023)",
  "key": {"P2Y14 [1]": {"biological_target": "T1, P2Y14 (Canis lupus familiaris, UniProt A0A8I3S656)", "T1 sequence (A0A8I3S656 1-340)": "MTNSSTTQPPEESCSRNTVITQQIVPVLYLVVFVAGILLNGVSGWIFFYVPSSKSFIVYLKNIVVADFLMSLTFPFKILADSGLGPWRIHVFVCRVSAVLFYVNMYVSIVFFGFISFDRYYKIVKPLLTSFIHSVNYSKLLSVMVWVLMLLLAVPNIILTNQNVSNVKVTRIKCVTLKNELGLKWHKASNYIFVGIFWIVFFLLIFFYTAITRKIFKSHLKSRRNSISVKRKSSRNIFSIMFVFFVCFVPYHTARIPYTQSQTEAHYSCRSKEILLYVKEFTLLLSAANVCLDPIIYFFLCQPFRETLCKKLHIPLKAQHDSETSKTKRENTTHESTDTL", "test": "[3H]UDP-glucose dose-displacement binding to MDCK-C11 membranes", "design": "endogenous in cells; host or cells: MDCK-C11 cells (Madin-Darby Canine Kidney subclone C11), not transfected; species or system Canine", "settings": "MDCK-C11 membranes 15 μg, [3H]UDP-glucose 3 nM, 3 hours 22° C., increasing concentrations (ATP up to 10 μM)", "experimental": "Incubation was terminated by the addition of ice-cold 50 mM Tris/HCl pH 7.4, 1 mM EDTA, 5 mM MgCl2 and was followed immediately by filtration under vacuum through Gelman A/E glass filters (Pall life science, An Arbor, Mich.) pre-soaked in binding buffer. The filters were rinsed twice before the addition of 5 ml of scintillation fluid (OpticFluor, Groninge, The Netherlands). Receptor-bound radioactivity was measured using liquid scintillation analyzer Tricarb 2200 CA from Parckard. All assays were performed in triplicate. […] Incubations were stopped by the addition of ice-cold buffer and receptor-bound radioactivity was determined as described above. The equilibrium dissociation constant (Kd) and the capacity of binding in dose-displacement studies were calculated using a scatchard plot and are expressed as the mean±SD. Statistical analysis were performed using the unpaired Student t-test."}, "P2Y14 [2]": {"biological_target": "T2, P2Y14 (Mus musculus, UniProt Q9ESG6)", "T2 sequence (Q9ESG6 1-338)": "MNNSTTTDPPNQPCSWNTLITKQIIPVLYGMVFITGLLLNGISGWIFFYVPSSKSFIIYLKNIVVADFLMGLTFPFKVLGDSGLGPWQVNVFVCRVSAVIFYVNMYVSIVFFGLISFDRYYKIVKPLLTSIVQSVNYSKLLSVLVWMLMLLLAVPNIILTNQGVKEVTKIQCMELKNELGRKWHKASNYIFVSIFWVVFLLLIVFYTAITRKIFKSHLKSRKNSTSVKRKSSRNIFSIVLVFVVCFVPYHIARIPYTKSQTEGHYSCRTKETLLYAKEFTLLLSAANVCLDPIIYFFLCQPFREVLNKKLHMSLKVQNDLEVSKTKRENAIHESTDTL", "settings": "EGFP(+) cell membranes, saturating concentration 10^−5 M unlabeled ligand", "experimental": "Mice were anesthetized using pentobarbital sodium (50 mg/kg body, ip, Nembutal, Abbott Laboratories, Abbott Park, Ill.). The blood was flushed out of the organs by perfusing the animals with a phosphate-buffered saline (PBS) through the cardiac left ventricle at a constant flow rate of 17 ml/min. Kidneys were excised and sliced, and some kidneys were microdissected to separate the cortex from the medulla. Tissues were then minced immediately with scissors in RPMI 1640 medium (Invitrogen, Grand Island, N.Y.) containing 1.0 mg/ml collagenase type I (Invitrogen), 1.0 mg/ml collagenase type II (Sigma Aldrich) and 2 mg/ml hyaluronidase (Sigma Aldrich), and digested for 45 min at 37° C. A 40-μm-nylon mesh was used to remove undigested material following tissue digestion. Cells were then washed once with RPMI 1640 medium and once with a calcium-free PBS. EGFP-positive (EGFP(+)) and negative (EGFP(−)) cells were isolated immediately by FACS, based on their green fluorescence intensity, as described previously (36). […]\nConfluent MDCK-C11 cells were scrapped in ice-cold PBS, pelleted by centrifugation (500 g, 10 min) and then resuspended in 1 ml ice-cold Tris-acetate 0.2 M buffer (pH 7.5) containing protease inhibitors (Complete Mini, Roche, Indianapolis, Ind.) using a 25G needle. […] Protein concentration was determined using a nanodrop 2000 (Thermo scientific). […]"}, "[3]": {"tested_on": "pro-inflammatory chemokine mRNA expression in MDCK-C11 cells", "test": "Quantitative PCR of pro-inflammatory mediators in MDCK-C11 cells", "type": "cell-based, Canine", "experimental": "Total RNA was isolated from cells using RNeasy micro kit (Qiagen, Valencia, Calif.) and from tissues using RNeasy Mini kit, as described previously (36). DNase I digestion was performed using RNase-Free DNase Set (Qiagen) according to the manufacturer's instructions. All reverse transcription (RT) and PCR reagents were from Applied Biosystems (Foster City, Calif.). Reverse-transcription was performed for 1 h at 42° C. in a final volume of 50 μl with 1× buffer II, 5 mM MgCl2, 1.0 mM each dNTP, 1 U/μl RNase inhibitor, 2.5 μM random hexamers, and 2.5 U/μl MuLV reverse transcriptase. PCR was performed on RT products. For end point PCRs, reaction mixtures consisted of a 20 μl final volume containing 2 μl template, 1.25 units AmpliTaq Gold DNA polymerase, lx buffer II, 1.5 mM MgCl2, 1.0 mM each dNTP, and 0.5 μM forward and reverse oligonucleotide primers. The following parameters were used for PCR: 8 min at 95° C. to activate the polymerase, 35 cycles of melting for 30 s at 95° C., annealing for 30 s at 60° C., extension for 30 s at 72° C., and a final extension for 10 min at 72° C. The amplification products were visualized by electrophoresis on a 1-2% agarose gel containing GelStar stain (Lonza, Rockland, Me.).\nReal Time PCR was performed with a 7300 Real Time PCR system (Applied Biosystems). Amplification products were detected using the Power SYBR Green PCR master mix (Applied Biosystems), according to the manufacturer's instructions. Standard-curve relative quantifications were performed and relative values of each sample were normalized to GAPDH values. Samples were analyzed in triplicates for each experiment.\nMDCK-C11 cells were cultured at 37° C. in a 5% CO2-95% O2 mix in DMEM (Invitrogen) supplemented with 2 mM glutamine, 10% fetal bovine serum (Invitrogen), penicillin (100 U/ml), and streptomycin (100 μg/ml) (Invitrogen). Prior to any treatment, cells were serum starved for 24 hours. For cell surface biotinylation assays, cells were either grown to confluence on plastic dishes or on filters. Biotinylation was performed as described previously (75). Briefly cells were incubated with 1 mg/ml of biotin (Thermo Scientific, Pittsburgh, Pa.) in PBS pH 8 on ice for 1 h. The excess biotin was quenched with 100 mM glycine and cells were either further processed for immunostaining or lysed in lysis buffer [150 mM NaCl, 5 mM EDTA, 50 mM Tris/HEPES, pH 7.5; 1% (vol/vol) Triton X-100] containing protease and phosphatase inhibitors (Complete Mini EDTA free, PhosSTOP, Roche Diagnostics, Laval, Canada), for 20 min at 4° C. Total protein expression was determined in 2-5 μg of proteins from the total cell extracts. 50-100 μg of cell lysate proteins were incubated with neutravidin beads (Thermo Scientific) overnight at 4° C. […]"}, "P2Y14 [4]": {"biological_target": "T2, P2Y14", "test": "ERK1/2 phosphorylation in FACS isolated EGFP(+) intercalated cells (immunoblot)", "type": "cell-based", "design": "using total membranes separated from FACS isolated EGFP(+) cells and EGFP(−) cells; endogenous in cells; host or cells: EGFP(+) intercalated cells freshly isolated by FACS from kidneys of B1-EGFP transgenic mice", "settings": "with PPTN", "experimental": "Mice were anesthetized using pentobarbital sodium (50 mg/kg body, ip, Nembutal, Abbott Laboratories, Abbott Park, Ill.). The blood was flushed out of the organs by perfusing the animals with a phosphate-buffered saline (PBS) through the cardiac left ventricle at a constant flow rate of 17 ml/min. Kidneys were excised and sliced, and some kidneys were microdissected to separate the cortex from the medulla. Tissues were then minced immediately with scissors in RPMI 1640 medium (Invitrogen, Grand Island, N.Y.) containing 1.0 mg/ml collagenase type I (Invitrogen), 1.0 mg/ml collagenase type II (Sigma Aldrich) and 2 mg/ml hyaluronidase (Sigma Aldrich), and digested for 45 min at 37° C. A 40-μm-nylon mesh was used to remove undigested material following tissue digestion. Cells were then washed once with RPMI 1640 medium and once with a calcium-free PBS. EGFP-positive (EGFP(+)) and negative (EGFP(−)) cells were isolated immediately by FACS, based on their green fluorescence intensity, as described previously (36). Cell isolation was performed at the MGH flow cytometry core facility using a modified FACS Vantage cell sorter (BD Biosciences, San Jose, Calif.). FACS isolated samples were collected in PBS and used without delay for subsequent treatment and/or cell fractionation, protein and RNA isolation, or imaging. […]"}, "P2Y14 [5]": {"biological_target": "T1, P2Y14", "settings": "MDCK-C11 cells, PPTN 10 μM pre-treatment 30 minutes, 100 μM UDP-glucose"}, "[6]": {"settings": "PD98059 50 μM pretreatment 30 minutes"}},
  "data": [
    {"smiles": "Nc1ncnc2c1ncn2[C@@H]1O[C@H](COP(=O)(O)OP(=O)(O)OP(=O)(O)O)[C@@H](O)[C@H]1O", "note": "[ATP]", "values": [
      {"measurement": "inhibition of [3H]UDP-glucose binding by unlabeled ligand", "setting": "P2Y14 [1]", "value": "no significant inhibitory effect"},
      {"measurement": "displacement of [3H]UDP-glucose binding", "setting": "P2Y14 [2]", "value": "not with ATP"}
    ]},
    {"smiles": "COc1cccc(-c2cc(=O)c3ccccc3o2)c1N", "note": "[PD98059]", "values": [
      {"measurement": "UDP-glucose induced up regulation of CCL-2 mRNA", "setting": "[3]; [6]", "value": "abolished"},
      {"measurement": "UDP-glucose induced up regulation of IL-8 mRNA", "setting": "[3]; [6]", "value": "abolished"}
    ]},
    {"smiles": "O=C(O)c1cc(-c2ccc(C3CCNCC3)cc2)c2ccc(-c3ccc(C(F)(F)F)cc3)cc2c1", "note": "[PPTN, 4-[4-(piperidin-4-yl)phenyl]-7-[4-(trifluoromethyl)phenyl]-2-naphthoic acid]", "values": [
      {"measurement": "UDP-glucose dependent ERK phosphorylation in ICs isolated by FACS (FIG. 14)", "setting": "P2Y14 [4]", "value": "inhibits"},
      {"measurement": "UDP-glucose induced increase in ERK1/2 phosphorylation", "setting": "P2Y14 [5]", "value": "abolished"},
      {"measurement": "increase in CCl2 mRNA expression induced by UDP-glucose", "setting": "[3]; PPTN pretreatment 30 minutes", "value": "abolished"},
      {"measurement": "increase in IL8 mRNA expression induced by UDP-glucose", "setting": "[3]; PPTN pretreatment 30 minutes", "value": "abolished"}
    ]}
  ]
}
